Experimental findings from ChEMBL document CHEMBL1201862, “PubChem BioAssay data set” (2004) are described below.

As a reminder, the EC50 is the concentration at which the effect is half-maximal. Broadly, the AC50 is the concentration giving half of the maximal activity seen.

Calls of active or inactive are those of the source.

Assay [1] concerns the target Glucose-6-phosphate 1-dehydrogenase (Homo sapiens, UniProt P11413). The experiment in a line: inhibition of Homo sapiens G6PD, dose series – biochemical, fluorescence, selectivity assay for P. falciparum G6PD inhibitor project, dose response (AID 504792). The class given is functional.
Assay [2] has as its target Heat shock protein HSP 90-alpha (Homo sapiens, UniProt P07900). As to the kind of experiment: Luminescence-based dose response biochemical high throughput screening assay for inhibitors of the Heat Shock Protein 90 (HSP90). [Related pubchem assays: 1831 (Summary AID.), 1846 (Confirmation screen.), 1789 (Primary screen.)].
The target in a further assay is T1, Protein skinhead-1 (Caenorhabditis elegans, UniProt P34707).
T1 sequence (P34707 whole entry): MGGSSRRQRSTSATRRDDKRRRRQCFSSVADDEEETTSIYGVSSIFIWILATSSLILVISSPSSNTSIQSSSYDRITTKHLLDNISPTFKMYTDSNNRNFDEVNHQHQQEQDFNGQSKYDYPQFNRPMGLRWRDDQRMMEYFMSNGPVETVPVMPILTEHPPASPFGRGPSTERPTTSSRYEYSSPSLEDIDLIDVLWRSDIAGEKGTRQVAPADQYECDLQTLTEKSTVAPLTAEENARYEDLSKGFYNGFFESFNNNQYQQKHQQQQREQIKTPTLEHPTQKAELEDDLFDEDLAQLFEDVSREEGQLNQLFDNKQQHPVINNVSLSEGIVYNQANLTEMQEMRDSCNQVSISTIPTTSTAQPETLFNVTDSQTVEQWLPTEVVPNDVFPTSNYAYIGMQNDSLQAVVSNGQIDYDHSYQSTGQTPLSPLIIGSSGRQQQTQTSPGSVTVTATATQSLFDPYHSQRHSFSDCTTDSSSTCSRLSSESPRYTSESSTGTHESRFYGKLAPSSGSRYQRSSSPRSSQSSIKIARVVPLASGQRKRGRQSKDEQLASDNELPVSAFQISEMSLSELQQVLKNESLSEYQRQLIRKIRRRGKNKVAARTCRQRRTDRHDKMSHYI
The class given is functional.

Assay [3] concerns the target Mitogen-activated protein kinase 10 (Homo sapiens, UniProt P53779). The experiment in a line: Dose response biochemical screening assay for inhibitors of c-Jun N-Terminal Kinase 3 (JNK3). [Related pubchem assays: 746 ].
For assay [4], the system named is HEK293. The experiment in a line: cells. Particulars: Homo sapiens.
Assay [5] has as its system HEK293. As to the kind of experiment: cells. Conditions: Homo sapiens. The source holds these as a separate data set.
Another assay concerns the target NADPH oxidase 1 (Homo sapiens, UniProt Q9Y5S8). The experiment in a line: Late-stage luminescence-based cell-based dose response assay to identify inhibitors of NADPH oxidase 1 (NOX1): Synthesized analogs 2. The class given is functional.
Assay [6] has as its target Aryl hydrocarbon receptor (Homo sapiens, UniProt P35869). As to the kind of experiment: Luminescence-based cell-based high throughput dose response assay for activators of the Aryl Hydrocarbon Receptor (AHR). [Related pubchem assays: 2796 (Primary screen (AHR activators in singlicate)), 2845 (Confirmation screen (AHR activators in triplicate)), 434939 (Counterscreen (PXR activators in triplicate)), 2804 (Summary (AHR activators))]. The class given is ADME. (Counterscreens check selectivity or assay interference.)

The next assay deals with Genome polyprotein (Hepatitis C virus, UniProt Q2Q167). As to the kind of experiment: disruption of hepatitis C core self-association – biochemical, TR-FRET, dose response (AID 2159).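 Further: blocks dimerization of HCV core protein measured by TR-FRET between tagged core106 pairs.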 The arrangement: species or system Hepacivirus hominis. A general note: TR-FRET usually uses a lanthanide donor and a delayed reading to cut background.
Sequence of Genome polyprotein (Q2Q167 whole entry): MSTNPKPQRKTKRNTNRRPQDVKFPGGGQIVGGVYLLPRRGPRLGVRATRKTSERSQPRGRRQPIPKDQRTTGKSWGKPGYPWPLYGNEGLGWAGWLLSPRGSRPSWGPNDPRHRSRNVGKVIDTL
Assay [7] is described as follows: M. tuberculosis growth inhibition, HTS (AID 449762). Format: functional.
The next assay concerns HeLa. The experiment in a line: ATP-based viability loss in HeLa cells – cell-based, CellTiter-Glo luminescence, cherry-pick samples, cytotoxicity control for MITF activator project, dose response (AID 540259). The class given is functional. Conditions: Homo sapiens.
The nature of assay [8]: A cytotoxicity screen of small molecule inhibitors of the PhoP region in Salmonella typhi identified in the primary screen. [Related pubchem assays: 1850, 1864, 1985 ]. Format: functional.
The target of assay [9] is T2, Small ubiquitin-related modifier 1 (Homo sapiens, UniProt P63165). The experiment in a line: SUMO1 protein interaction blockers, potency – biochemical, fluorescence polarization, uHTS hits, dose response (AID 624382). Format: functional. Conditions: read-out: IC50_Mean.
T2 sequence (P63165 whole entry): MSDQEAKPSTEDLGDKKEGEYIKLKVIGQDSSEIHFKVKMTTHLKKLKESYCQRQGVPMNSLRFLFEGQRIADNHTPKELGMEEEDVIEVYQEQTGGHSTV
Assay [10] deals with Glutathione-S-transferase (Schistosoma japonicum, UniProt Q26513). As to the kind of experiment: GST-antibody interaction or FRET quenching – biochemical, TR-FRET, artefact control for Vif-APOBEC3G degradation inhibitor project, dose response (AID 1117362). The class given is functional.
Sequence of Glutathione-S-transferase (Q26513 whole entry, the tested form may be a part): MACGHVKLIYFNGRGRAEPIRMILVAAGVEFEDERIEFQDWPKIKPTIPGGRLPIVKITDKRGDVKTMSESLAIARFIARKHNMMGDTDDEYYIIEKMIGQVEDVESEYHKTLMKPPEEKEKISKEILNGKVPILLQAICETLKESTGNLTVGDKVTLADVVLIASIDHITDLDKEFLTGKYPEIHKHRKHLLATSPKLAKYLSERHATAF
Assay [11] concerns the target T3, Carboxy-terminal domain RNA polymerase II polypeptide A small phosphatase 1 (Homo sapiens, UniProt Q9GZU7).
T3 sequence (Q9GZU7 whole entry): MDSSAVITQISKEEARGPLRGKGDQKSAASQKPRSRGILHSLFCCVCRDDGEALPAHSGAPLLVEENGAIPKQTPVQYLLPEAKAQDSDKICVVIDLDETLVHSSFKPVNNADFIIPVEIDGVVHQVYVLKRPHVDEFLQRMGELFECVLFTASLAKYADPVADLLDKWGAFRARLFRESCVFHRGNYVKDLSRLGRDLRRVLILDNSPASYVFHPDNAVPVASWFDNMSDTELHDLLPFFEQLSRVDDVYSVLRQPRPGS
As to the kind of experiment: CTDSP1 inhibitors, concentration-response, biochemical, absorbance readout, ultra-high-throughput screen actives (AID 540297). The class given is functional.

A further assay has as its target ELAV-like protein 1 (Homo sapiens, UniProt Q15717). The experiment in a line: Identify HuR specific inhibitors. Format: functional.
Assay [12] concerns the target T2, Small ubiquitin-related modifier 1. The experiment in a line: SUMO1 protein-protein binding blockers, potency – biochemical, FRET, dose response (AID 624383). The class given is functional. Conditions: read-out: IC50_Mean.

Sequence of NADPH oxidase 1 (Q9Y5S8 whole entry): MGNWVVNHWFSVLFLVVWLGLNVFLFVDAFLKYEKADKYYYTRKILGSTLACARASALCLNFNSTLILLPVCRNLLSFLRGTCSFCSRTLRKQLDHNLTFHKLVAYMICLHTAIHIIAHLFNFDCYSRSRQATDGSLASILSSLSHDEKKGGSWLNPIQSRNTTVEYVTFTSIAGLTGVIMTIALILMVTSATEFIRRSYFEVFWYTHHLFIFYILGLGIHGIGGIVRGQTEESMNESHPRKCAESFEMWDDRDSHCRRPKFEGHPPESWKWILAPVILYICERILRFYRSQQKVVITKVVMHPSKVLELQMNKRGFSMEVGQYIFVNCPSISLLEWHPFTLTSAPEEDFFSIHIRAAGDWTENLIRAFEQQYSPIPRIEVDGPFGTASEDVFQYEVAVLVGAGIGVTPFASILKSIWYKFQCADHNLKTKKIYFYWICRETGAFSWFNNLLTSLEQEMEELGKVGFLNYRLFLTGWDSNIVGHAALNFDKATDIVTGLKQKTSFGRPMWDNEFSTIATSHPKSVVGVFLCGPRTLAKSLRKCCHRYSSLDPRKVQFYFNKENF
Sequence of Aryl hydrocarbon receptor (P35869 whole entry): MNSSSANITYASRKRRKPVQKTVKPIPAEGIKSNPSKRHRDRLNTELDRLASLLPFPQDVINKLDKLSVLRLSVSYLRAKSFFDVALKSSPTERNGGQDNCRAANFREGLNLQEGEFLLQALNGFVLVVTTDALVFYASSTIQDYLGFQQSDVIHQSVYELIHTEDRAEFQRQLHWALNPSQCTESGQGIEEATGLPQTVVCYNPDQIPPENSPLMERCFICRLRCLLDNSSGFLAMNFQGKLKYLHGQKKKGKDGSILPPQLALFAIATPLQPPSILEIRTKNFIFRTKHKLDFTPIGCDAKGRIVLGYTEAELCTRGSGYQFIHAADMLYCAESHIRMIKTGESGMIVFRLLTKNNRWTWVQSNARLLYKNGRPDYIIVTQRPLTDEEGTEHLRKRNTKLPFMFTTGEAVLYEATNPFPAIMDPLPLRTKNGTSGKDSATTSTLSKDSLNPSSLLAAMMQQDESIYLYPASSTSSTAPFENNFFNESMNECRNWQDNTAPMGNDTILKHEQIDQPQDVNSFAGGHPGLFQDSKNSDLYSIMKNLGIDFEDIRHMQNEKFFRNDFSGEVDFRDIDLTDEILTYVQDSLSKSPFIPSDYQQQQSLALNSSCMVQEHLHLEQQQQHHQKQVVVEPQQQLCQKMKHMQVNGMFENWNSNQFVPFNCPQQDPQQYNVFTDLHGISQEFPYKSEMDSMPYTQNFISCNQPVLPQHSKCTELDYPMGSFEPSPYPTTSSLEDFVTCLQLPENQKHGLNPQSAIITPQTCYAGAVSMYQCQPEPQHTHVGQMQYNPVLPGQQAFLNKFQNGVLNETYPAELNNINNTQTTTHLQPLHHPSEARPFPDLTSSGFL
Sequence of ELAV-like protein 1 (Q15717 whole entry): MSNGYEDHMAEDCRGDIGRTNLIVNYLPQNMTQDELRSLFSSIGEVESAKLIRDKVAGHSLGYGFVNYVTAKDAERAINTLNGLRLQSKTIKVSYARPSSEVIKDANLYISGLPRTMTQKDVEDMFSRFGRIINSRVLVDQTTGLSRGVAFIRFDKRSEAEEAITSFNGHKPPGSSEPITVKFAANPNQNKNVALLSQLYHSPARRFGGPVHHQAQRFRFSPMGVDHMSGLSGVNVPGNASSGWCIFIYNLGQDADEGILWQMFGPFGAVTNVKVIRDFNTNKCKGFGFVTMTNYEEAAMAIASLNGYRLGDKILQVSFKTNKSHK
Sequence of Mitogen-activated protein kinase 10 (P53779 whole entry): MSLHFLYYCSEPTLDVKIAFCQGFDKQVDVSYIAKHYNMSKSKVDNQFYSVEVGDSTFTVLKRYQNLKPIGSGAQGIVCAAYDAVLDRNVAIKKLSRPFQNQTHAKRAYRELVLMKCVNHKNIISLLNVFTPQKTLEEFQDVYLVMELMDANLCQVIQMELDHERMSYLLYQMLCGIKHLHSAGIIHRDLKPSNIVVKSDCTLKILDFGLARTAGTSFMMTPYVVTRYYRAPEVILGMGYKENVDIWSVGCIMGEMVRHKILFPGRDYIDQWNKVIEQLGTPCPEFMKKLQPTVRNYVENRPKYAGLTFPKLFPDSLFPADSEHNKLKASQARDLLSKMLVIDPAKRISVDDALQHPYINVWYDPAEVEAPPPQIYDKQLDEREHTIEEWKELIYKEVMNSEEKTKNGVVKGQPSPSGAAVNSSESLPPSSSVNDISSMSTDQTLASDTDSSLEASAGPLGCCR
Sequence of Glucose-6-phosphate 1-dehydrogenase (P11413 whole entry): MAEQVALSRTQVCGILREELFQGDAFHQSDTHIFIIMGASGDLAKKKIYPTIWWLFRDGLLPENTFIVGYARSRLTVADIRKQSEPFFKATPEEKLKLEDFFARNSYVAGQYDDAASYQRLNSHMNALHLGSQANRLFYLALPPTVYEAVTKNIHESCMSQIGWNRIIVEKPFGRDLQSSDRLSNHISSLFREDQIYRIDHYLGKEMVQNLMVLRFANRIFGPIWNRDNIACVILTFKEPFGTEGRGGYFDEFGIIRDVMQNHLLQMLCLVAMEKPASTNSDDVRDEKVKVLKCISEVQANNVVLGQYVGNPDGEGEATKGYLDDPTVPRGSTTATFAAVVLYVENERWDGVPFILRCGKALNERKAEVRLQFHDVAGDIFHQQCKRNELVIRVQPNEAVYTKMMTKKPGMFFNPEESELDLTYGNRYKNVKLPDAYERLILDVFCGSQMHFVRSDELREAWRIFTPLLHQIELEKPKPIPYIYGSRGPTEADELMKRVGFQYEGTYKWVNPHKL

As for `[O-]/[N+](=C\c1ccco1)c1ccc(Cl)cc1`, the IC50 in [1] was 27.6 µM (inactive); in assay [2], 4.31 µM (active); at Protein skinhead-1, > 100 µM (inactive).

As to `COc1cc(C2NC(=O)NC(C)=C2C(=O)OCc2ccccc2)ccc1O` (configuration not stated), the IC50 in assay [3] was > 93.1 µM (not active). Further, the EC50 with HEK293 [4] and in the assay with HEK293 [5] was > 59.6 µM (inactive) each time.

Take `CN1c2ccccc2Sc2cc(N=[N+]=[N-])ccc21`: on NADPH oxidase 1, the IC50 is 0.73 µM (active).

In the case of `CCCCc1cc2c(c(NC(C)=O)n1)c(=O)oc1ccccc12`, the concentration giving a half-maximal response (EC50) in assay [6] is 3.25 µM (active).

`COc1ccc(S(=O)(=O)N2CCOCC2)cc1NC(=O)c1cccc(-n2cccc2)c1`: on Genome polyprotein, the IC50 is > 49.8 µM (not active).

As to `Nc1ccc(N=Nc2ccccc2)c(N)n1`, in assay [7], the IC50 is > 100 µM (active). Further, the AC50 in the assay with HeLa was 36 µM (active). The 50% effective concentration (EC50) in assay [8] was > 50 µM (active).

For the compound `CCOC(=O)C(=O)Cc1cccnn1`, the IC50 is > 66.6 µM (inactive) in [9]; > 100 µM (active) in assay [10]; 4.08 µM (active) in [11]; 4.6 µM (inactive) on ELAV-like protein 1; 6.34 µM (active) in [12].
